Experimental findings from US20080081021A1, “Manganese-enhanced magnetic resonance imaging of neurons using electrical stimulation” (priority 2006, published 2008) are described below.

Where two headings read alike, the source gives them in different places.

Test [1] deals with rat spinal cord (gray matter, white matter, cortical spinal tract). The following applies: for *T1CST: cortical spinal tract in spinal cord; for *T1CST / T1GM / T1WM: 1 M MnCl2 0.2 μL bilateral intracortical, 9.4 T; for T1GM: gray matter of spinal cord, mean±SD, four rats; for T1WM: white matter of spinal cord. The procedure: (§1) The experiments were conducted on twelve Sprague-Dawley rats weighing between 300 and 350 g under a protocol approved by the University of Kansas Medical Center Institutional Animal Care and Use Committee. Six rats were studied without electrical stimulation in the cortex and served as the control group. The remaining six rats formed the stimulation group.
The syringe was mounted on a micropositioner attached to a stereotaxic frame. The tip of the glass pipette was lowered perpendicular to the brain surface at the center of the first burr hole and inserted into the cortex through the exposed dura one millimeter below the pial surface. The syringe was emptied slowly to deliver 0.2 μL of the solution over a period of five minutes. To prevent backflow of solution, the pipette was left in place for another five minutes prior to withdrawal. This procedure was repeated for the contralateral motor area through the second burr hole.
To eliminate this problem, the burr holes in the skull of the rat from the stimulation group were first carefully drained of fluid. Electrical stimulation was then applied through a 1 mm diameter stainless steel electrode with the titanium screw serving as reference. The electrode was connected to a DS7 Digitimer constant current stimulator (Digitimer Ltd., Hertfordshire, England) and lowered through the first burr hole on the same side as the screw until it touched to dura. A Grass S48 stimulator (Grass Medical Instruments, Quincy, Mass.) generated the stimulus pulse sequence used to externally trigger the constant current stimulator. Trains of biphasic stimuli (each phase 0.2 ms, negative first) were applied at 100 Hz for an “on” period of 5 seconds followed by an “off” period of 5 seconds. […] Once threshold was determined, stimulation was applied at approximately twice the threshold for 90 minutes. If the strength of the evoked movement declined noticeably, frequency and current values were increased to maintain a constant motor response. These procedures were repeated for the opposite cortex through a second burr hole. With these settings, the total stimulation time was 180 minutes, 90 minutes for each side of the cortex. Immediately after stimulation, the electrodes were removed, and the skin was closed tightly with suture. The animal was then left to recover in its cage.
The animals were anesthetized using spontaneous inhalation of 4% isoflurane for induction, followed by a mixture of 1.5% isoflurane, 30% oxygen, and air delivered through a nose mask. The rat's head was stabilized on a Plexigas holder and positioned into a 6 cm inner diameter volume coil for MRI scanning on a 9.4 T horizontal Varian scanner (Varian Inc., Palo Alto, Calif.). While in the scanner, the physiological condition of the rat was monitored using ECG, respiratory and temperature probes that were connected to an MR-compatible small animal monitoring and gating system (Model 1025, SA Instruments, Inc., Stony Brook, N.Y.). The rat's temperature was kept at about 37° C. by circulating warm air with 40% humidity using a 5 cm diameter plastic tube fitted to the back door of the magnet bore.
The resulting data set consisted of axial images acquired independently at eight different TR values: 50, 100, 250, 500, 750, 2000, 3500, and 6000 ms with averages=10, 6, 6, 2, 2, 2, 2 and 2, respectively, and TE=12 ms. The other acquisition parameters were image matrix=128×128, field-of-view (FOV)=23×23 mm^2 and slice thickness=4 mm. The acquired data were analyzed quantitatively to produce a parametric T1 map of the spinal cord by following the procedures described previously in Bilgen et al., Ex vivo magnetic resonance imaging of rat spinal cord at 9.4 T, Magn. Reson. Imaging 23:601-605 (2005).
T1-maps were produced for four rats from each of the stimulated and control groups.

For the next test, the system named is cortical spinal tract. The following applies: 24 hours after injection. As to the method:
as §1
The syringe was mounted on a micropositioner attached to a stereotaxic frame. The tip of the glass pipette was lowered perpendicular to the brain surface at the center of the first burr hole and inserted into the cortex through the exposed dura one millimeter below the pial surface. […]
To eliminate this problem, the burr holes in the skull of the rat from the stimulation group were first carefully drained of fluid. […] Once threshold was determined, stimulation was applied at approximately twice the threshold for 90 minutes. […]
The animals were anesthetized using spontaneous inhalation of 4% isoflurane for induction, followed by a mixture of 1.5% isoflurane, 30% oxygen, and air delivered through a nose mask. […] While in the scanner, the physiological condition of the rat was monitored using ECG, respiratory and temperature probes that were connected to an MR-compatible small animal monitoring and gating system (Model 1025, SA Instruments, Inc., Stony Brook, N.Y.). […]

Where [2] appears, read: control rats without electrical stimulation.

Turning to manganese chloride, in test [1] (setting [2]), the “*T1CST” value is reported as 1.43 ± 0.09 s, the T1GM turned out to be 1.55 ± 0.05 s and the T1WM was found to be 1.53 ± 0.06 s. Besides, in test [1] (electrically stimulated rats), the “*T1CST” value is 1.24 ± 0.08 s, the T1GM amounted to 1.54 ± 0.06 s and the T1WM turned out to be 1.51 ± 0.07 s. For the same substance, in test [1] (stimulated vs non-stimulated rats, both given MnCl2), the “T1 in the cortical spinal tract shorter in electrically stimulated rats compared to controls” value was “about 20%”. Moreover, the “manganese enhancement of the cortical spinal tract” value with cortical spinal tract (non-stimulated rat) was “fades away as the cortical spinal tract approaches the spinal cord”. The “labeling of the cortical spinal tract in the spinal cord” value with cortical spinal tract (with electrical stimulation of the cortex) is on record as “more robust labeling of the cortical spinal tract in the spinal cord”.
